25 molecules from patent US7371769B2, “Tetrahydropyridin-4-yl indoles with a combination of affinity for dopamine-D2 receptors and serotonin reuptake sites” (Solvay Pharmaceuticals B.V., priority 2004, dated 2008) can be followed below.

Usually melting point stands for the temperature, or range, at which the solid turns liquid.

One data set addresses T1, dopamine-D2 receptors (Rattus norvegicus, UniProt P61169).
T1 construct: labels dopamine receptors in rat pituitary and brain; from tissue; host or cells: rat pituitary / brain (from the title of the cited method only)
In words: In vitro affinity for dopamine-D2 receptors ([3H]-spiroperidol receptor binding assay). The conditions noted are these: read-out: Dopamine-D2 pKi (converted). As to the method: In vitro Affinity for Dopamine-D2 Receptors
Affinity of the compounds for dopamine-D2 receptors was determined using the receptor binding assay described by I. Creese, R. Schneider and S. H. Snyder: “[^3H]-Spiroperidol labels dopamine receptors in rat pituitary and brain”, Eur. J. Pharmacol., 46, 377-381,1977.
(§1) The affinity of the compounds of the invention for dopamine-D2 receptors and serotonine reuptake sites was determined as described above. From the binding affinity measured for a given compound of formula (1), one can estimate a theoretical lowest effective dose. At a concentration of the compound equal to twice the measured Ki-value, 100% of the receptors likely will be occupied by the compound. Converting that concentration to mg of compound per kg of patient yields a theoretical lowest effective dose, assuming ideal bioavailability. Pharmacokinetic, pharmacodynamic, and other considerations may alter the dose actually administered to a higher or lower value. The dosage expediently administered is 0.001-1000 mg/kg, preferably 0.1-100 mg/kg of patient's bodyweight.

The target in the next data set is T2, serotonin reuptake sites (Rattus norvegicus, UniProt P31652).
T2 construct: from tissue; host or cells: rat cortical membranes (from the title of the cited method only)
T2 sequence (P31652 whole entry): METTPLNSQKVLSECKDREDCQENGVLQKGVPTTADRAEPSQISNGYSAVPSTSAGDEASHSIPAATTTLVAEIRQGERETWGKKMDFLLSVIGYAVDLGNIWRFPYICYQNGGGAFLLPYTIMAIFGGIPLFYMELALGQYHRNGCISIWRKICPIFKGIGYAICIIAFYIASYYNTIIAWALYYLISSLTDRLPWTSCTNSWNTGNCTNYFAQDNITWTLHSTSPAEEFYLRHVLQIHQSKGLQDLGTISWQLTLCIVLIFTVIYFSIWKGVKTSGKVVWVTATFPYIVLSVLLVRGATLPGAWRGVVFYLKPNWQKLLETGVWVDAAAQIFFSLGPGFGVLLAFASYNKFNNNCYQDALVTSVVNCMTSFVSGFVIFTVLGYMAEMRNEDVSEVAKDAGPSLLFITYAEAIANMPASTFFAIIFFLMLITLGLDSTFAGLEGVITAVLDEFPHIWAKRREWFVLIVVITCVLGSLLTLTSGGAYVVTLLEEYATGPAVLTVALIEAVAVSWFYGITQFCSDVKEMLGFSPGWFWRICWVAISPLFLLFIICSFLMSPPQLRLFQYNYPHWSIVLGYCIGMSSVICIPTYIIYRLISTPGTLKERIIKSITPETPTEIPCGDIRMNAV
The data set is described as follows: In vitro affinity for serotonin reuptake sites ([3H]-paroxetine binding assay). The conditions noted are these: read-out: 5-HT reuptake pKi (converted). As to the method: In vitro Affinity for Serotonin Reuptake Sites
Affinity of the compounds for serotonin reuptake sites was determined using the receptor binding assay described by E. Habert et al.,: “Characterisation of [^3H]-paroxetine binding to rat cortical membranes”, Eur. J. Pharmacol., 118, 107-114, 1985.
as §1

Counter-ions that a name gives are not always drawn.

T1 sequence (P61169 whole entry): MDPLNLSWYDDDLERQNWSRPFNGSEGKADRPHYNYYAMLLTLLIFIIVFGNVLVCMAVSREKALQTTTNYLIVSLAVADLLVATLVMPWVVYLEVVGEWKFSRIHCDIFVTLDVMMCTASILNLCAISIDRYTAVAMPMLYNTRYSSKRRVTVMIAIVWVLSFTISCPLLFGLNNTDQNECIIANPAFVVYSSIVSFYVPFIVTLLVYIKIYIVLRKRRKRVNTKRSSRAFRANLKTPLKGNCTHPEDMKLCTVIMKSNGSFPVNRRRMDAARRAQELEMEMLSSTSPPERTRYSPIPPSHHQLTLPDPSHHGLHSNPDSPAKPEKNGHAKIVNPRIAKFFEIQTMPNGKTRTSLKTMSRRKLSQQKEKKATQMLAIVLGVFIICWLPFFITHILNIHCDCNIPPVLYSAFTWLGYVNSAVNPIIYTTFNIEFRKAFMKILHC

For the molecule `Cc1nc2ccccn2c(=O)c1CCN1CC=C(c2c[nH]c3ccccc23)CC1` (as salt: HCl) [Compound 1], the melting point was 205 °C (dec.).

On to `Cc1ccn2c(=O)c(CCN3CC=C(c4c[nH]c5ccccc45)CC3)c(C)nc2c1` (as salt: HCl) [Compound 15], for which the melting point is 261 to 264 °C.

As to `COc1nc(C)c(CCN2CC=C(c3c[nH]c4ccccc34)CC2)c(=O)n1C` (as salt: HCl) [Compound 18, 5-[2-[4-(1H-indol-3-yl)-1,2,3,6-tetrahydropyridin-1-yl]ethyl]-2-methoxy-3,6-dimethyl-3H-pyrimidin-4-one], the melting point is 209 to 211 °C. The same measure, in the same setting: under `CSc1nc(C)c(CCN2CC=C(c3c[nH]c4ccccc34)CC2)c(=O)n1C` (as salt: salt) stands 245 to 246 °C; under `Cc1nc2c(C)cccn2c(=O)c1CCN1CC=C(c2c[nH]c3ccc(F)cc23)CC1` (as salt: salt), 229 to 230 °C; under `Cc1nc2ccccn2c(=O)c1CCN1CC=C(c2c[nH]c3ccc(F)cc23)CC1` (as salt: salt) [Compound 7], 226 to 227 °C (dec.). Still for that read-out and setting: under `CSc1nc(C)c(CCN2CC=C(c3c[nH]c4ccc(F)cc34)CC2)c(=O)n1C` (as salt: salt) [Compound 19] stands 229 °C (dec.); under `Cc1nc2c(C)cccn2c(=O)c1CCN1CC=C(c2c[nH]c3ccccc23)CC1` (as salt: salt) [Compound 22, 3-[2-[4-(1H-indol-3-yl)-1,2,3,6-tetrahydropyridin-1-yl]-ethyl]-2,9-dimethyl-4H-pyrido[1,2-a]pyrimidin-4-one], 242 to 246 °C; under `CCc1ccn2c(=O)c(CCN3CC=C(c4c[nH]c5ccc(F)cc45)CC3)c(C)nc2c1` (as salt: salt) [Compound 24], 198 to 201 °C. On the same count and under the same terms, the same measure for `Cc1nc2cc(-c3ccccc3)ccn2c(=O)c1CCN1CC=C(c2c[nH]c3ccccc23)CC1` (as salt: salt) [Compound 27]: 211 to 224 °C; for `Cc1ncn(C)c(=O)c1CCN1CC=C(c2c[nH]c3ccc(F)cc23)CC1` (as salt: salt) [Compound 33]: 234 to 235 °C (dec.).

Turning to `Cc1nc2ccccn2c(=O)c1CCN1CC=C(c2c[nH]c3ccccc23)CC1` [Compound 1], the Ki at dopamine-D2 receptors was 20 nM; at serotonin reuptake sites, 1.58 nM. Consider `Cc1nc2ccccn2c(=O)c1CCN1CC=C(c2c[nH]c3ccc(F)cc23)CC1` [Compound 7], for which the figures for the Ki on dopamine-D2 receptors and at serotonin reuptake sites were 15.8 nM and 0.316 nM, respectively. As for `Cc1nc2n(c(=O)c1CCN1CC=C(c3c[nH]c4ccccc34)CC1)CCS2` [Compound 10], the Ki at dopamine-D2 receptors was 15.8 nM; at serotonin reuptake sites, 1.58 nM.

`Cc1nc2sccn2c(=O)c1CCN1CC=C(c2c[nH]c3ccccc23)CC1` [Compound 11]: the Ki is 10 nM at dopamine-D2 receptors and 2.51 nM at serotonin reuptake sites.

For `CSc1nc(C)c(CCN2CC=C(c3c[nH]c4ccccc34)CC2)c(=O)[nH]1` [Compound 14], the Ki on dopamine-D2 receptors is 100 nM; on serotonin reuptake sites it was 50.1 nM. For `Cc1ccn2c(=O)c(CCN3CC=C(c4c[nH]c5ccccc45)CC3)c(C)nc2c1` [Compound 15], the Ki was 7.94 nM on dopamine-D2 receptors and 3.98 nM on serotonin reuptake sites. For `COc1nc(C)c(CCN2CC=C(c3c[nH]c4ccccc34)CC2)c(=O)n1C` [Compound 18, 5-[2-[4-(1H-indol-3-yl)-1,2,3,6-tetrahydropyridin-1-yl]ethyl]-2-methoxy-3,6-dimethyl-3H-pyrimidin-4-one], the Ki is 31.6 nM at dopamine-D2 receptors and 0.794 nM on serotonin reuptake sites.

With `CSc1nc(C)c(CCN2CC=C(c3c[nH]c4ccc(F)cc34)CC2)c(=O)n1C` [Compound 19], the Ki on dopamine-D2 receptors is 6.31 nM; at serotonin reuptake sites, 25.1 nM. On the same counts, the results for `CSc1nc(C)c(CCN2CC=C(c3cn(C)c4ccccc34)CC2)c(=O)n1C` [Compound 20] are 100 nM and 7.94 nM. In the case of `Cc1ccn2c(=O)c(CCN3CC=C(c4c[nH]c5ccc(F)cc45)CC3)c(C)nc2c1` [Compound 21], the figures for the Ki at dopamine-D2 receptors and at serotonin reuptake sites were 31.6 nM and 0.158 nM, respectively. For `Cc1nc2c(C)cccn2c(=O)c1CCN1CC=C(c2c[nH]c3ccccc23)CC1` [Compound 22, 3-[2-[4-(1H-indol-3-yl)-1,2,3,6-tetrahydropyridin-1-yl]-ethyl]-2,9-dimethyl-4H-pyrido[1,2-a]pyrimidin-4-one] the same measures were 7.94 nM and 1.58 nM. `CCc1ccn2c(=O)c(CCN3CC=C(c4c[nH]c5ccc(F)cc45)CC3)c(C)nc2c1` [Compound 24]: the Ki at dopamine-D2 receptors was 10 nM; at serotonin reuptake sites, 7.94 nM.

Turning to `Cc1nc2cc(-c3ccccc3)ccn2c(=O)c1CCN1CC=C(c2c[nH]c3ccccc23)CC1` [Compound 27], the Ki was 63.1 nM at dopamine-D2 receptors and 0.316 nM at serotonin reuptake sites. On the same counts, the results for `Cc1ncn(C)c(=O)c1CCN1CC=C(c2c[nH]c3ccc(F)cc23)CC1` [Compound 33] are 50.1 nM and 3.16 nM.
